# From ChEMBL document CHEMBL1145618, “Discovery of trypanocidal thiosemicarbazone inhibitors of rhodesain and TbcatB” (Bioorg Med Chem Lett, 2008)
# How the values were obtained:
# Cathepsin B = Cathepsin B (Homo sapiens, UniProt P07858); assay: Inhibition of human cathepsin B
# Procathepsin L = Procathepsin L (Homo sapiens, UniProt P07711); assay: Inhibition of human cathepsin L
# Trypanosoma brucei = assay: Antitrypanosomal activity against Trypanosoma brucei; format: functional, organism-based
# [1] = Inhibition of Trypanosoma brucei cathepsin B
# [2] = Therapeutic index, ratio of EC50 for human Raji cells to EC50 for Trypanosoma brucei; format: cell-based; conditions: Raji cells (versus Trypanosoma brucei), read-out: Ratio EC50
# [3] = Inhibition of Trypanosoma brucei rhodesain
# Chain of Procathepsin L (P07711 whole entry): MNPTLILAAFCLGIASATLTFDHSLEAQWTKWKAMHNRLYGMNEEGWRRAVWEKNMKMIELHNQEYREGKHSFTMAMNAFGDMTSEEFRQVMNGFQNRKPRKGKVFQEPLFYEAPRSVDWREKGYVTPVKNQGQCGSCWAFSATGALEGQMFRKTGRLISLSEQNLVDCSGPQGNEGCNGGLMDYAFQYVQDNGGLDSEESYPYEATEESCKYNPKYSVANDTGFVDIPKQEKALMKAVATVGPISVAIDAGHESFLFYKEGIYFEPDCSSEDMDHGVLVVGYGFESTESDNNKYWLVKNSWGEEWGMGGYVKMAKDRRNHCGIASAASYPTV
Structure (SMILES),IC50 (Cathepsin B),IC50 (Procathepsin L),EC50 (Trypanosoma brucei),IC50 [1],selectivity ratio [2],IC50 [3]
NC(=S)N/N=C(/CCc1ccccc1)c1cccc(Cl)c1,6000 nM,21 nM,3700 nM,> 25000 nM,> 6.7,42 nM
NC(=S)N/N=C(/c1cc(Cl)cc(Cl)c1)c1cccs1,300 nM,3.6 nM,7000 nM,450 nM,> 4,11 nM
NC(=S)N/N=C(/c1cc(C(F)(F)F)cc(C(F)(F)F)c1)c1cccs1,300 nM,10.1 nM,7000 nM,150 nM,> 4,7 nM
NC(=S)N/N=C(/CCc1ccccc1)c1cccc(F)c1,22000 nM,118 nM,6000 nM,> 25000 nM,> 4,390 nM
Cc1ccc(/C(=N/NC(N)=S)c2cccc(F)c2)cc1,4500 nM,44 nM,> 10000 nM,> 25000 nM,,89 nM
Cc1ccc(/C(=N\NC(N)=S)c2cc(Cl)cc(Cl)c2)cc1,1800 nM,11 nM,1100 nM,6000 nM,> 9,46 nM
Cc1ccc(/C(=N/NC(N)=S)c2ccccc2)cc1,13000 nM,1020 nM,> 10000 nM,> 25000 nM,,500 nM
NC(=S)N/N=C(/C=C/c1ccccc1)c1cccc(C(F)(F)F)c1,1700 nM,81 nM,2500 nM,7000 nM,> 10,29 nM
NC(=S)N/N=C(\CCc1ccccc1)c1cc(Cl)cc(Cl)c1,4900 nM,39 nM,1300 nM,> 25000 nM,> 19,57 nM
Cc1ccc(/C(=N/NC(N)=S)c2cccc(C(F)(F)F)c2)cc1,210 nM,9.4 nM,1500 nM,210 nM,> 17,8 nM
NC(=S)N/N=C(\CCc1ccccc1)c1cc(C(F)(F)F)cc(C(F)(F)F)c1,3000 nM,17 nM,2000 nM,> 25000 nM,> 10,53 nM
NC(=S)N/N=C(/CCc1ccccc1)c1ccccc1,> 25000 nM,910 nM,> 10000 nM,> 25000 nM,,1500 nM
Cc1ccc(/C(=N\NC(N)=S)c2cc(C(F)(F)F)cc(C(F)(F)F)c2)cc1 [THIOSEMICARBAZONE STANDARD],3300 nM,7.4 nM,1300 nM,15000 nM,> 19,44 nM
